Broadly, the EC50 is the concentration at which the effect is half-maximal. As usually defined, the CC50 is the concentration at which the toxic effect on the cells reaches its halfway point. Lower therefore signals harm at low concentration.

In one data set the test system is HBV. The experiment in a line: Anti-HBV activity in HepG2.2.15 cells (HBV DNA in culture medium by qPCR). Type of data set: cell-based. The settings on record: HepG2.2.15 cells, 6 days treatment, HBV DNA in culture medium quantified by real-time PCR, read-out: EC50. An outline of the steps:
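Secreted HBV DNA was measured by real-time PCR after 6-day compound exposure of HepG2.2.15 cells (2% FBS, 37 °C, re-dosed after 3 days), giving EC50 from 8-point 1:3 series starting at 10 or 1 uM. Cytotoxicity (CC50) run separately at lower cell density, top 100 uM.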
In general terms: In qPCR the cycle at which signal appears reflects the starting amount.

The nature of data set [1]: Cytotoxicity determination in HepG2.2.15 cells (CCK-8 cell viability). Type of data set: cell-based. As to conditions: human, 6 days treatment, CCK-8 assay, highest concentration 100 uM. The essentials: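 Viability measured by CCK-8 absorbance (450 nm, 630 nm reference, 2.5 h at 37° C) after six days of treatment, medium and compound renewed on day 3. Top concentration 100 uM, eight threefold dilutions in triplicate; cells plated at 5,000/well in 2% FBS medium; CC50 derived.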
(In general: Tetrazolium dyes change colour on reduction, which living cells bring about.)

The mark [2] stands for this setting: Hepatitis B virus, HepG2.2.15, 144 h.

Like-named read-outs stand apart in the source and are kept apart here. A value given as a limit tells only on which side of the number the result lay.

In the case of `CCOC(=O)C1=C(CN2CC(F)(F)[C@@H]3[C@H]2CN(C)N3CCC(C)(C)C(=O)O)NC(c2nccs2)=N[C@H]1c1cccc(F)c1Cl` (single isomer, unassigned) [Compound 102, 4-((cis)-4-((6-(2-chloro-3-fluorophenyl)-5-(ethoxycarbonyl)-2-(thiazol-2-yl)-3,6-dihydropyrimidin-4-yl)methyl)-6,6-difluoro-2-methylhexahydropyrrolo[3,2-c]pyrazol-1(2H)-yl)-2,2-dimethylbutanoic acid], the EC50 with HBV (setting [2]) came out at 13.5 nM. In addition, in data set [1], the half-maximal cytotoxic concentration (CC50) at 6 days was found to be 53800 nM.
For `CCOC(=O)C1=C(CN2CC(F)(F)[C@@H]3NCC[C@@H]32)NC(c2nccs2)=N[C@H]1c1cccc(F)c1C` (single isomer, unassigned) [Compound 103], in the data set on HBV (setting [2]), the EC50 is 54.3 nM. Moreover, the CC50 at 6 days in data set [1] came to 19800 nM.
The corresponding values for `CCOC(=O)C1=C(CN2CC(F)(F)[C@H]3[C@@H]2CCN3[C@H]2CC[C@@H](C(=O)O)CC2)NC(c2nccs2)=N[C@H]1c1cccc(F)c1C` (single isomer, unassigned) [Compound 104A] are 10.4 nM and 16100 nM.
Taken in the same sequence, the figures for `CCOC(=O)C1=C(CN2CC(F)(F)[C@H]3[C@@H]2CCN3C2CCC(C(=O)O)CC2)NC(c2nccs2)=N[C@H]1c1cccc(F)c1C` (single isomer, unassigned) [Compound 104B] were 8 nM and greater than 6200 nM.
Turning to `CCOC(=O)C1=C(CN2CC(F)(F)[C@H]3[C@@H]2CCN3[C@H](C)CC(C)(C)C(=O)O)NC(c2nccs2)=N[C@H]1c1cccc(F)c1C` (single isomer, unassigned) [Compound 105A], the EC50 in the data set with HBV (setting [2]) was 10.5 nM. In addition, in data set [1], half-maximal cytotoxicity (CC50 at 6 days) was put at 15200 nM.
In the case of `CCOC(=O)C1=C(CN2CC(F)(F)[C@H]3[C@@H]2CCN3[C@@H](C)CC(C)(C)C(=O)O)NC(c2nccs2)=N[C@H]1c1cccc(F)c1C` (single isomer, unassigned) [Compound 105B], the EC50 in the data set on HBV (setting [2]) stood at 108 nM. Further, the midpoint of cytotoxicity in data set [1], the CC50 at 6 days, lay at 94300 nM.
For the compound `CCOC(=O)C1=C(CN2CC(F)(F)[C@H]3[C@@H]2CCN3CC(C)(C)C(=O)O)NC(c2nccs2)=N[C@@H]1c1cccc(O)c1C` (single isomer, unassigned) [Compound 106, (cis)-3-(4-((5-(ethoxycarbonyl)-6-(3-hydroxy-2-methylphenyl)-2-(thiazol-2-yl)-3,6-dihydropyrimidin-4-yl)methyl)-6,6-difluorohexahydropyrrolo[3,2-b]pyrrol-1(2H)-yl)-2,2-dimethylpropanoic acid], the EC50 in the data set with HBV (setting [2]) was found to be 20 nM. The same compound came in with a CC50 at 6 days in data set [1] of 39500 nM.
The corresponding values for `CCOC(=O)C1=C(CN2CC(F)(F)[C@H]3[C@@H]2CCN3CCC(C)(C)c2nnn[nH]2)NC(c2nccs2)=N[C@H]1c1cccc(F)c1C` (single isomer, unassigned) [Compound 108] are 0.4 nM and 13100 nM.
In the case of `CCOC(=O)C1=C(CN2CC(F)(F)[C@H]3[C@@H]2CCN3CC(C)(C)C(=O)NS(C)(=O)=O)NC(c2nccs2)=N[C@H]1c1cccc(F)c1C` (single isomer, unassigned) [Compound 109], in the data set with HBV (setting [2]), the EC50 is less than 1 nM. In data set [1], this compound returned a CC50 at 6 days of 7300 nM.
In the case of `CCOC(=O)C1=C(CN2CC(F)(F)[C@H]3[C@@H]2CCN3CCOC(C)(C)C(=O)O)NC(c2nccs2)=N[C@H]1c1cccc(F)c1C` (single isomer, unassigned) [Compound 111], in the data set with HBV (setting [2]), the EC50 was 7.8 nM. Further, in data set [1], the half-maximal cytotoxic concentration (CC50) at 6 days worked out at 33400 nM.
On to `CCOC(=O)C1=C(CN2CC(F)(F)C3[C@@H]2CCN3[C@H]2C[C@](C)(C(=O)O)C2)NC(c2nccs2)=N[C@H]1c1cccc(F)c1C` (single isomer, unassigned) [Compound 112A], for which the 50% effective concentration (EC50) in the data set with HBV (setting [2]) was found to be 4.6 nM. In data set [1], this compound had a CC50 at 6 days of 28700 nM.
With `CCOC(=O)C1=C(CN2CC(F)(F)C3[C@@H]2CCN3[C@H]2C[C@@](C)(C(=O)O)C2)NC(c2nccs2)=N[C@H]1c1cccc(F)c1C` (single isomer, unassigned) [Compound 112B], the 50% effective concentration (EC50) in the data set on HBV (setting [2]) turned out to be 4.7 nM. For the same compound, the CC50 at 6 days in data set [1] came out at 23600 nM.
On to `CCOC(=O)C1=C(CN2CC(F)(F)C3[C@@H]2CCN3C2CC(C)(C(=O)O)C2)NC(c2nccs2)=N[C@H]1c1cccc(F)c1C` (single isomer, unassigned) [Compound 112], for which the EC50 in the data set with HBV (setting [2]) was found to be 5.3 nM. The compound also yielded a cytotoxic concentration (CC50) at 6 days in data set [1] of 28600 nM.
As to `[H][C@]1(N2CC[C@H]3[C@@H]2C(F)(F)CN3CC2=C(C(=O)OCC)[C@H](c3cccc(F)c3C)N=C(c3nccs3)N2)C[C@@]2(C[C@@H](C(=O)O)C2)C1` (single isomer, unassigned) [Compound 113A], the EC50 with HBV (setting [2]) was found to be 5 nM. The same compound gave a cytotoxic concentration (CC50) at 6 days in data set [1] greater than 3000 nM.
Take `[H][C@]1(C(=O)O)C[C@@]2(C1)C[C@@]([H])(N1CC[C@H]3[C@@H]1C(F)(F)CN3CC1=C(C(=O)OCC)[C@H](c3cccc(F)c3C)N=C(c3nccs3)N1)C2` (single isomer, unassigned) [Compound 113B]: the EC50 in the data set with HBV (setting [2]) was less than 1 nM. This compound registered a half-maximal cytotoxic concentration (CC50) at 6 days in data set [1] greater than 3100 nM.
As for `CCOC(=O)C1=C(CN2CC(F)(F)[C@H]3[C@@H]2CCN3C2CC3(CC(C(=O)O)C3)C2)NC(c2nccs2)=N[C@H]1c1cccc(F)c1C` (single isomer, unassigned) [Compound 113], the 50% effective concentration (EC50) in the data set with HBV (setting [2]) came to 2.2 nM. In data set [1], this compound yielded a CC50 at 6 days of 12500 nM.
Consider `CCOC(=O)C1=C(CN2CC(F)(F)[C@H]3[C@@H]2CCN3C2CCC(C(=O)O)C2)NC(c2nccs2)=N[C@H]1c1cccc(F)c1C` (single isomer, unassigned) [Compound 115], for which the EC50 in the data set on HBV (setting [2]) turned out to be 3.1 nM. This compound displayed a cytotoxic concentration (CC50) at 6 days in data set [1] of 24000 nM.
For the compound `CCOC(=O)C1=C(CN2CC(F)(F)[C@H]3[C@@H]2CCN3C[C@H]2C[C@@](C)(C(=O)O)C2)NC(c2nccs2)=N[C@H]1c1cccc(F)c1C` (single isomer, unassigned) [Compound 116A], in the data set on HBV (setting [2]), the EC50 stood at 0.8 nM. The same compound came in with a CC50 at 6 days in data set [1] of 12100 nM.
As to `CCOC(=O)C1=C(CN2CC(F)(F)[C@H]3[C@@H]2CCN3C[C@H]2C[C@](C)(C(=O)O)C2)NC(c2nccs2)=N[C@H]1c1cccc(F)c1C` (single isomer, unassigned) [Compound 116B], the EC50 with HBV (setting [2]) amounted to 2.5 nM. In data set [1], this compound yielded a CC50 at 6 days of 10600 nM.
As for `CCOC(=O)C1=C(CN2CC(F)(F)[C@H]3[C@@H]2CCN3CCC2(C(=O)O)CC2)NC(c2nccs2)=N[C@H]1c1cccc(F)c1C` (single isomer, unassigned) [Compound 117], in the data set with HBV (setting [2]), the EC50 is less than 0.5 nM. Moreover, in data set [1], the 50% cytotoxic concentration (CC50) at 6 days is 24700 nM.
In the case of `CCOC(=O)C1=C(CN2CC(F)(F)[C@H]3[C@@H]2CCN3CCC(C)(C)C(=O)O)NC(c2nc(C)cs2)=N[C@H]1c1cccc(F)c1C` (single isomer, unassigned) [Compound 118], in the data set on HBV (setting [2]), the EC50 turned out to be 5.4 nM. In data set [1], this compound came in with a CC50 at 6 days of 12700 nM.
Regarding `CCOC(=O)C1=C(CN2C[C@H](F)[C@H]3[C@@H]2CCN3CCC(C)(C)C(=O)O)NC(c2nccs2)=N[C@H]1c1cccc(F)c1C` (single isomer, unassigned) [Compound 119], the concentration for a half-maximal effect (EC50) with HBV (setting [2]) was determined as 55.5 nM. Further, the CC50 at 6 days in data set [1] was determined as 20200 nM.
In the case of `[H][C@]1(N2CC[C@H]3[C@@H]2C(F)(F)CN3CC2=C(C(=O)OC)[C@H](c3cccc(F)c3F)N=C(c3nccs3)N2)C[C@@]2(C[C@@H](C(=O)O)C2)C1` (single isomer, unassigned) [Compound 120A], the EC50 in the data set with HBV (setting [2]) amounted to 12 nM. In data set [1], this compound gave a half-maximal cytotoxic concentration (CC50) at 6 days of 28100 nM.
Regarding `[H][C@]1(N2CC[C@H]3[C@@H]2C(F)(F)CN3CC2=C(C(=O)OC)[C@H](c3cccc(F)c3F)N=C(c3nccs3)N2)C[C@]2(C[C@@H](C(=O)O)C2)C1` (single isomer, unassigned) [Compound 120B], in the data set on HBV, the EC50 is 13 nM. In data set [1], this compound came in with a 50% cytotoxic concentration (CC50) at 6 days of 19900 nM.
Turning to `CCOC(=O)C1=C(CN2CC(F)(F)[C@H]3[C@@H]2CCN3C[C@@H](CC)C(=O)O)NC(c2nccs2)=N[C@@H]1c1ccc(F)nc1C` (single isomer, unassigned) [Compound 122A, 2-(((cis)-4-((5-(ethoxycarbonyl)-6-(6-fluoro-2-methylpyridin-3-yl)-2-(thiazol-2-yl)-3,6-dihydropyrimidin-4-yl)methyl)-6,6-difluorohexahydropyrrolo[3,2-b]pyrrol-1(2H)-yl)methyl)butanoic acid], the 50% effective concentration (EC50) in the data set on HBV (setting [2]) turned out to be 6 nM. For the same compound, in data set [1], the half-maximal cytotoxic concentration (CC50) at 6 days is greater than 100000 nM.
For `CCOC(=O)C1=C(CN2CC(F)(F)[C@H]3[C@@H]2CCN3[C@H]2C[C@@H](CC(=O)O)C2)NC(c2nccs2)=N[C@H]1c1cccc(F)c1C` (single isomer, unassigned) [Compound 123A], the 50% effective concentration (EC50) in the data set on HBV (setting [2]) came out at 8 nM. This compound registered a CC50 at 6 days in data set [1] of 18600 nM.
For the compound `CCOC(=O)C1=C(CN2CC(F)(F)[C@H]3[C@@H]2CCN3[C@H]2C[C@H](CC(=O)O)C2)NC(c2nccs2)=N[C@H]1c1cccc(F)c1C` (single isomer, unassigned) [Compound 123B], the 50% effective concentration (EC50) with HBV (setting [2]) came out at 9 nM. It took 16100 nM to reach half-maximal cytotoxicity in data set [1] (CC50 at 6 days).
Regarding `CCOC(=O)C1=C(CN2CC(F)(F)[C@H]3[C@@H]2CCN3c2nc(C(=O)O)cs2)NC(c2nccs2)=N[C@H]1c1cccc(F)c1C` (single isomer, unassigned) [Compound 124], the half-maximal effective concentration (EC50) with HBV (setting [2]) is 24.2 nM. The compound further displayed a CC50 at 6 days in data set [1] of 7700 nM.
For `COC(=O)C1=C(CN2CC(F)(F)[C@H]3[C@@H]2CCN3CCC(C)(C)C(=O)O)NC(c2ncoc2C)=N[C@H]1c1ccc(F)cc1Cl` (single isomer, unassigned) [Compound 125, 4-((cis)-4-((6-(2-chloro-4-fluorophenyl)-5-(methoxycarbonyl)-2-(5-methyloxazol-4-yl)-3,6-dihydropyrimidin-4-yl)methyl)-6,6-difluorohexahydropyrrolo[3,2-b]pyrrol-1(2H)-yl)-2,2-dimethylbutanoic acid], the concentration for a half-maximal effect (EC50) in the data set on HBV (setting [2]) is 9.3 nM. In data set [1], this compound returned a CC50 at 6 days of 58400 nM.

The values are drawn from patent US20230083012A1, “DIHYDROPYRIMIDINE DERIVATIVES AND USES THEREOF IN THE TREATMENT OF HBV INFECTION OR OF HBV-INDUCED DISEASES” (priority 2019, published 2023).
